From patent publication US11045457B2, “Piperidinyl-3-(aryloxy)propanamides and propanoates” (priority 2018, dated 2021)

Legend:
[1] = target: T1, SSTR4 (Homo sapiens (Human), UniProt P31391); assay: SSTR4 I-125 somatostatin competition binding assay (membranes from CHO-K1 cells overexpressing SSTR4); settings: competition with I-125 labeled somatostatin
[2] = target: SSTR1 (Homo sapiens (Human), UniProt P30872); assay: SSTR1 I-125 somatostatin competition binding assay for selectivity versus SSTR4 (membranes from CHO-K1 cells overexpressing SSTR1); settings: competition with I-125 labeled somatostatin, CHO-K1 SSTR1 membranes;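 further: Filter-based radioligand binding, bound label counted by scintillation after 60 min incubation at room temperature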
Chain of SSTR1 (P30872 whole entry): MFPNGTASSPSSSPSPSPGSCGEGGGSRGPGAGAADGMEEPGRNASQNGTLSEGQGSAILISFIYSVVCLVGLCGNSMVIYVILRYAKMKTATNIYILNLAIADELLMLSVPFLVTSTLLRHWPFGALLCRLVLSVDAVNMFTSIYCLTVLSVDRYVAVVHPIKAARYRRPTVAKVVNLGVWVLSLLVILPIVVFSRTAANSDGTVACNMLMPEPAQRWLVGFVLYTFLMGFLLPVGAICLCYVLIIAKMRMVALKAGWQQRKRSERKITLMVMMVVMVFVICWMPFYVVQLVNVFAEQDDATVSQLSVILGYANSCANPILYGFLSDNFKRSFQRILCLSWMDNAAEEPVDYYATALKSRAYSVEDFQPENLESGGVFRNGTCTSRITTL
Method: Membranes from CHO-K1 cells overexpressing SSTR1 are purchased from Perkin Elmer (catalog number ES-520-M400UA). […] Then 10 μg of SSTR1 membranes in 50 μL assay buffer are added per well. The plate is incubated for 60 minutes at room temperature. […] The contents of the assay plate are transferred to filters with a TomTech harvester and washed 5 times with 20 mM HEPES, 100 mM NaCl. […] The scintillator sheets are melted to the filters using a heat block. The filters are then read in a MicroBeta scintillation counter. Binding Ki curves are generated using Activity Base for Screening Data Management and the results are reported as pIC50.

[3] = target: T1, SSTR4; assay: Inhibition of forskolin stimulated cAMP in CHO-K1 cells overexpressing SSTR4; assay type: cell-based
Summary of the method: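 Read-out is a HTRF LANCE Ultra cAMP competition using Eu-labelled streptavidin and biotin-cAMP, incubated 60 min at room temperature. It followed a 30 min room-temperature exposure of Kreb's Ringer-washed cells to compound plus forskolin. Potency is expressed as pEC50.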

T1 sequence (P31391 whole entry): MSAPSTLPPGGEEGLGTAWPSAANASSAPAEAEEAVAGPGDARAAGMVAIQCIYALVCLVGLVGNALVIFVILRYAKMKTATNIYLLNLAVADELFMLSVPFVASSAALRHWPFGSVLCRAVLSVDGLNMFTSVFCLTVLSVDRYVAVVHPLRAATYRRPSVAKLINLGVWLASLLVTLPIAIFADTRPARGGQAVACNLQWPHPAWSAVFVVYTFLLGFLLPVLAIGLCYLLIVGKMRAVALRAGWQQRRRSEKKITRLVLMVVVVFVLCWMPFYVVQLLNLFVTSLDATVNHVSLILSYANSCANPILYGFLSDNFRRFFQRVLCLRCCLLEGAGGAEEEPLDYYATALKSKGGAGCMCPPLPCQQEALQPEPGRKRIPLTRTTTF

Row | Structure (SMILES) | SSTR4 Binding pIC50 [1] | SSTR1 Binding pIC50 [2] | SSTR4 Activity pEC50 [3]
1 | Cc1nn(C)cc1[C@@H]1CN(C)C[C@H]1NC(=O)C(C)(C)COc1ncccc1OC(F)(F)F (relative stereo) [Example 29, trans-N-(4-(1,3-dimethyl-1H-pyrazol-4-yl)-1-methylpyrrolidin-3-yl)-2,2-dimethyl-3-((3-(trifluoromethoxy)pyridin-2-yl)oxy)propanamide] | 7.4 | 6.4 | 8.4
2 | Cc1c([C@@H]2CN(C)C[C@H]2NC(=O)C(C)(C)COc2ncccc2OC(F)(F)F)cnn1C (relative stereo) [Example 30, trans-N-(4-(1,5-dimethyl-1H-pyrazol-4-yl)-1-methylpyrrolidin-3-yl)-2,2-dimethyl-3-((3-(trifluoromethoxy)pyridin-2-yl)oxy)propanamide] | 7.8 | 6.9 | 9.0
3 | C[C@H]1C[C@@H](NC(=O)C(C)(C)COc2ncccc2OC(F)(F)F)CCN1C (relative stereo) [Example 136, cis-N-(1,2-dimethylpiperidin-4-yl)-2,2-dimethyl-3-((3-(trifluoromethoxy)pyridin-2-yl)oxy)propanamide] | 7.1 | 4.8 | 8.1
4 | Cc1ccccc1[C@@H]1CNCC[C@H]1N(C)C(=O)C(C)(C)COc1ncccc1C(F)(F)F (relative stereo) [Example 155, N,2,2-trimethyl-N-(trans-3-(o-tolyl)piperidin-4-yl)-3-((3-(trifluoromethyl)pyridin-2-yl)oxy)propanamide] | 7.2 | 5.4 | 8.0
5 | Cc1ccccc1[C@@H]1CNCC[C@@H]1N(C)C(=O)C(C)(C)COc1ncccc1C(F)(F)F (relative stereo) [Example 156, N,2,2-trimethyl-N-(cis-3-(o-tolyl)piperidin-4-yl)-3-((3-(trifluoromethyl)pyridin-2-yl)oxy)propanamide] | 6.4 | 4.6 | 7.2
6 | Cc1ccccc1[C@@H]1CNCC[C@H]1NC(=O)C(C)(C)COc1ncccc1C(F)(F)F (relative stereo) [Example 157, 2,2-dimethyl-N-(trans-3-(o-tolyl)piperidin-4-yl)-3-((3-(trifluoromethyl)pyridin-2-yl)oxy)propanamide] | 8.8 | 7.0 | 9.9
7 | Cc1ccccc1[C@@H]1CN(C)CC[C@H]1NC(=O)C(C)(C)COc1ncccc1C(F)(F)F (relative stereo) [Example 161, 2,2-dimethyl-N-(trans-1-methyl-3-(o-tolyl)piperidin-4-yl)-3-((3-(trifluoromethyl)pyridin-2-yl)oxy)propanamide] | 7.7 | 6.5 | 9.1
8 | CN1CC[C@H](NC(=O)C(C)(C)COc2ncccc2C(F)(F)F)[C@H](c2ccccc2)C1 (relative stereo) [Example 163, 2,2-dimethyl-N-(cis-1-methyl-3-phenylpiperidin-4-yl)-3-((3-(trifluoromethyl)pyridin-2-yl)oxy)propanamide] | 6.1 | 5.2 | 7.3
9 | C[C@@H]1CN(C)C[C@H]1NC(=O)C(C)(C)COc1ncccc1OC(F)(F)F (relative stereo) [Example 180, N-(trans-1,4-dimethylpyrrolidin-3-yl)-2,2-dimethyl-3-((3-(trifluoromethoxy)pyridin-2-yl)oxy)propanamide] | 6.5 | 5.4 | 7.6
10 | C[C@@H]1CN(C)CC[C@H]1NC(=O)C(C)(C)COc1ccccc1Cl (relative stereo) [Example 186, trans-3-(2-chlorophenoxy)-N-(1,3-dimethylpiperidin-4-yl)-2,2-dimethylpropanamide] | 7.4 | 5.5 | 8.1
11 | CN1CCC(NC(=O)C(C)(C)COc2ncccc2C(F)(F)F)CC1 [Example 41, 2,2-dimethyl-N-(1-methylpiperidin-4-yl)-3-((3-(trifluoromethyl)pyridin-2-yl)oxy)propanamide] | 6.4 | 4.2 | 7.4
12 | CN1CCC(NC(=O)C(C)(C)COc2ncccc2C2CC2)CC1 [Example 47, 3-((3-cyclopropylpyridin-2-yl)oxy)-2,2-dimethyl-N-(1-methylpiperidin-4-yl)propanamide] | 7.1 | 4.8 | 8.1
13 | CN1CC[C@@H](NC(=O)C(C)(C)COc2ncccc2C2CC2)C1 [Example 53, (R)-3-((3-cyclopropylpyridin-2-yl)oxy)-2,2-dimethyl-N-(1-methylpyrrolidin-3-yl)propanamide] | 6.6 | 4.6 | 7.4
14 | CN1CCC(NC(=O)C(C)(C)COc2ccccc2C(F)(F)F)CC1 [Example 64, 2,2-dimethyl-N-(1-methylpiperidin-4-yl)-3-(2-(trifluoromethyl)phenoxy)propanamide] | 7.0 | 5.1 | 7.9
15 | CN1CC[C@@H](NC(=O)C(C)(C)COc2ccccc2C(F)(F)F)C1 [Example 65, (R)-2,2-dimethyl-N-(1-methylpyrrolidin-3-yl)-3-(2-(trifluoromethyl)phenoxy)propanamide] | 7.0 | 5.1 | 7.9
16 | CN1CCC(NC(=O)C(C)(C)COc2ccccc2Cl)CC1 [Example 66, 3-(2-chlorophenoxy)-2,2-dimethyl-N-(1-methylpiperidin-4-yl)propanamide] | 7.0 | 4.9 | 7.7
17 | CN1CCC(NC(=O)C(C)(C)COc2ccccc2Br)CC1 [Example 67, 3-(2-bromophenoxy)-2,2-dimethyl-N-(1-methylpiperidin-4-yl)propanamide] | 7.4 | 5.1 | 8.1
18 | CN1CC[C@@H](NC(=O)C(C)(C)COc2ccccc2Cl)C1 [Example 68, (R)-3-(2-chlorophenoxy)-2,2-dimethyl-N-(1-methylpyrrolidin-3-yl)propanamide] | 6.8 | 4.6 | 7.5
19 | CN1CC[C@@H](NC(=O)C(C)(C)COc2ccccc2Br)C1 [Example 69, (R)-3-(2-bromophenoxy)-2,2-dimethyl-N-(1-methylpyrrolidin-3-yl)propanamide] | 7.2 | 5.2 | 8.4
20 | CN1CCC(NC(=O)C(C)(C)COc2ccccc2C2CC2)CC1 [Example 70, 3-(2-cyclopropylphenoxy)-2,2-dimethyl-N-(1-methylpiperidin-4-yl)propanamide] | 7.6 | 5.5 | 8.4
21 | CN1CC[C@@H](NC(=O)C(C)(C)COc2ccccc2C2CC2)C1 [Example 71, (R)-3-(2-cyclopropylphenoxy)-2,2,-dimethyl-N-(1-methylpyrrolidin-3-yl)propanamide] | 7.3 | 5.3 | 8.3
22 | CCc1ccccc1OCC(C)(C)C(=O)NC1CCN(C)CC1 [Example 72, 3-(2-ethylphenoxy)-2,2-dimethyl-N-(1-methylpiperidin-4-yl)propanamide] | 7.1 | 4.8 | 8.1
23 | Cc1ccccc1OCC(C)(C)C(=O)NC1CCN(C)CC1 [Example 76, 2,2-dimethyl-N-(1-methylpiperidin-4-yl)-3-(o-tolyloxy)propanamide] | 6.7 | 4.7 | 7.7
24 | CN1CCC(NC(=O)C(C)(C)COc2ncccc2OC(F)(F)F)CC1 [Example 92, 2,2-dimethyl-N-(1-methylpiperidin-4-yl)-3-((3-(trifluoromethoxy)pyridin-2-yl)oxy)propanamide] | 6.8 | 4.8 | 7.7
25 | CN1CCC(NC(=O)C(C)(C)COc2ccccc2OC(F)(F)F)CC1 [Example 102, 2,2-dimethyl-N-(1-methylpiperidin-4-yl)-3-(2-(trifluoromethoxy)phenoxy)propanamide] | 7.8 | 5.6 | 8.7
